Holding throughout (assay): isoTOP-ABPP mapping of AEA-DA-modified peptides in Neuro2a cells
Holding throughout (type): cell-based

Test [1] addresses T1, AEA-DA-modified peptides in Neuro2a cells (Mus musculus, UniProt Q9CZS1).
T1 construct: endogenous in cells; host or cells: Neuro2a
To be noted: AEA-DA-modified peptide ALDH1B1 Q9CZS1 119-147, SEQ ID NO 8; probe 100 μM, 12 replicates.

Test [2] has as its target T2, AEA-DA-modified peptides in Neuro2a cells (Mus musculus, UniProt P57776).
T2 construct: endogenous in cells; host or cells: Neuro2a
To be noted: AEA-DA-modified peptide EEF1D P57776 25-39, SEQ ID NO 35; probe 100 μM, 12 replicates.

Test [3] addresses T3, AEA-DA-modified peptides in Neuro2a cells (Mus musculus, UniProt Q61335).
T3 construct: endogenous in cells; host or cells: Neuro2a
To be noted: AEA-DA-modified peptide BCAP31 Q61335 73-80, SEQ ID NO 21; probe 100 μM, 12 replicates.

Test [4] concerns the target T4, AEA-DA-modified peptides in Neuro2a cells (Mus musculus, UniProt Q9DCC8).
T4 construct: endogenous in cells; host or cells: Neuro2a
To be noted: AEA-DA-modified peptide TOMM20 Q9DCC8 69-89, SEQ ID NO 115; probe 100 μM, 12 replicates.

Test [5] has as its target T5, AEA-DA-modified peptides in Neuro2a cells (Mus musculus, UniProt Q8BMG8).
T5 construct: endogenous in cells; host or cells: Neuro2a
To be noted: AEA-DA-modified peptide SLC25A32 Q8BMG8 115-146, SEQ ID NO 104; probe 100 μM, 12 replicates.

Test [6] concerns the target T6, AEA-DA-modified peptides in Neuro2a cells (Mus musculus, UniProt Q61425).
T6 construct: endogenous in cells; host or cells: Neuro2a
To be noted: AEA-DA-modified peptide HADH Q61425 250-272, SEQ ID NO 47; probe 100 μM, 12 replicates.

Test [7] concerns the target T7, AEA-DA-modified peptides in Neuro2a cells (Mus musculus, UniProt P36536).
T7 construct: endogenous in cells; host or cells: Neuro2a
To be noted: AEA-DA-modified peptide SAR1A P36536 192-199, SEQ ID NO 95; probe 100 μM, 12 replicates.

In test [8] the target is T8, AEA-DA-modified peptides in Neuro2a cells (Mus musculus, UniProt Q8BJ03).
T8 construct: endogenous in cells; host or cells: Neuro2a
To be noted: AEA-DA-modified peptide COX15 Q8BJ03 317-331, SEQ ID NO 25; probe 100 μM, 12 replicates.

Test [9] has as its target T9, AEA-DA-modified peptides in Neuro2a cells (Mus musculus, UniProt Q60864).
T9 construct: endogenous in cells; host or cells: Neuro2a
To be noted: AEA-DA-modified peptide STIP1 Q60864 506-514, SEQ ID NO 106; probe 100 μM, 12 replicates.

For test [10], the target named is T10, AEA-DA-modified peptides in Neuro2a cells (Mus musculus, UniProt Q99M71).
T10 construct: endogenous in cells; host or cells: Neuro2a
To be noted: AEA-DA-modified peptide EPDR1 Q99M71 171-182, SEQ ID NO 38; probe 100 μM, 12 replicates.

Test [11] addresses T11, AEA-DA-modified peptides in Neuro2a cells (Mus musculus, UniProt P61750).
T11 construct: endogenous in cells; host or cells: Neuro2a
To be noted: probe 100 μM, 12 replicates.

The target of test [12] is T12, AEA-DA-modified peptides in Neuro2a cells (Mus musculus, UniProt P10649).
T12 construct: endogenous in cells; host or cells: Neuro2a
To be noted: AEA-DA-modified peptide GSTM1 P10649 109-123, SEQ ID NO 44; probe 100 μM, 12 replicates.

T11 sequence (P61750 whole entry): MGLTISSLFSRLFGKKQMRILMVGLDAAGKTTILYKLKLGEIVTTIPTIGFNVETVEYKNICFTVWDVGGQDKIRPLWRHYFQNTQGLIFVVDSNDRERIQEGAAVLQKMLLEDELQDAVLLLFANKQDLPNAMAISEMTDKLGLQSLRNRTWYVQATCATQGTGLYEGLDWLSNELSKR
T1 sequence (Q9CZS1 20-519): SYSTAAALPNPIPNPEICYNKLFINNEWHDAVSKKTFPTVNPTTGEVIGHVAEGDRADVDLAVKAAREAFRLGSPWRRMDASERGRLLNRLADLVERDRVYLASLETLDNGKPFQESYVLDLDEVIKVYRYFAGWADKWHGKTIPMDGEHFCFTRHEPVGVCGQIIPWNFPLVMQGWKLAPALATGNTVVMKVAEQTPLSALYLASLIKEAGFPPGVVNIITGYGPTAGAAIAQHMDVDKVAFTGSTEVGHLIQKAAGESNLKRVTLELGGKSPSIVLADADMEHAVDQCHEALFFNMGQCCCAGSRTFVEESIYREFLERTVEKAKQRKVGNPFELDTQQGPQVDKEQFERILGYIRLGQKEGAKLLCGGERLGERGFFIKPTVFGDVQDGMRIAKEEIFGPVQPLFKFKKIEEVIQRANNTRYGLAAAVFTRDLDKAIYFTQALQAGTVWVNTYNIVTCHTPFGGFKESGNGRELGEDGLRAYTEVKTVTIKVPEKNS
T4 sequence (Q9DCC8 whole entry): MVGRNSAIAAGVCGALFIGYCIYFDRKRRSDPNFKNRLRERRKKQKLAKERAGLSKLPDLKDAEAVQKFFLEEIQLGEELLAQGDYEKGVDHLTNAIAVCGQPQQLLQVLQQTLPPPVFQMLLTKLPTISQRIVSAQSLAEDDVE
T3 sequence (Q61335 whole entry): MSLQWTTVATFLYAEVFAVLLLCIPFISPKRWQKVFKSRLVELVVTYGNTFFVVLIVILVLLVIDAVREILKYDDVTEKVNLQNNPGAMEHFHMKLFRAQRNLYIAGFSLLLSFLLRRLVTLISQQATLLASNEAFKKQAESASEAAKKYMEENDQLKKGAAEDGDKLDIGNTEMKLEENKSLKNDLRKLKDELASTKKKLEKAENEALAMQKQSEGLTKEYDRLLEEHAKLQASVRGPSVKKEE
T8 sequence (Q8BJ03 whole entry): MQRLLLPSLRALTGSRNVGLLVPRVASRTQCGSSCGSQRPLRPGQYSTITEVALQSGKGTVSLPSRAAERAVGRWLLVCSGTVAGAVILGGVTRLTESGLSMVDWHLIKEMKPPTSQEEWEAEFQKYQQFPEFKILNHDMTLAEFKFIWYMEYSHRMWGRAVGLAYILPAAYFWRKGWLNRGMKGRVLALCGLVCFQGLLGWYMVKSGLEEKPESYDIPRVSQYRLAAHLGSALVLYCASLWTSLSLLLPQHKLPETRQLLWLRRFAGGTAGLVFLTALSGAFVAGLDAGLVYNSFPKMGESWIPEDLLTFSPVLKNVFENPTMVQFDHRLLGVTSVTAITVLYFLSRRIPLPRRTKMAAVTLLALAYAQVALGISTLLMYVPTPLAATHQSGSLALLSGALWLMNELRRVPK
T7 sequence (P36536 whole entry): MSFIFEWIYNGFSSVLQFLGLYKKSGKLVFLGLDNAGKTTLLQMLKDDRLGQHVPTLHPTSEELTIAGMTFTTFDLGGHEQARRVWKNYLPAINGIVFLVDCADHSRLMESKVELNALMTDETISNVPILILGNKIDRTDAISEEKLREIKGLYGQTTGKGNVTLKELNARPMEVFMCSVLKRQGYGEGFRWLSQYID
T10 sequence (Q99M71 38-224): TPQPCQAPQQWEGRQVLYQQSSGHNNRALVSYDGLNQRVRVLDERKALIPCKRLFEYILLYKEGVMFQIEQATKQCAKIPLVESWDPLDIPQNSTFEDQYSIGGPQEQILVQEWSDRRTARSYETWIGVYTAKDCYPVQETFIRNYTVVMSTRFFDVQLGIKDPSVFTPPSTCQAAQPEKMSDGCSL
T12 sequence (P10649 whole entry): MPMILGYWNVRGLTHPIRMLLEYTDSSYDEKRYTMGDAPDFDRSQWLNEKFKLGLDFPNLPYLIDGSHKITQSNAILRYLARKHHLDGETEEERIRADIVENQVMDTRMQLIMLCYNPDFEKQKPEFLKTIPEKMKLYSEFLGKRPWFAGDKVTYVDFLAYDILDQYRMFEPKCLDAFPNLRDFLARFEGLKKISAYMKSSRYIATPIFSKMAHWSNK
T2 sequence (P57776 whole entry): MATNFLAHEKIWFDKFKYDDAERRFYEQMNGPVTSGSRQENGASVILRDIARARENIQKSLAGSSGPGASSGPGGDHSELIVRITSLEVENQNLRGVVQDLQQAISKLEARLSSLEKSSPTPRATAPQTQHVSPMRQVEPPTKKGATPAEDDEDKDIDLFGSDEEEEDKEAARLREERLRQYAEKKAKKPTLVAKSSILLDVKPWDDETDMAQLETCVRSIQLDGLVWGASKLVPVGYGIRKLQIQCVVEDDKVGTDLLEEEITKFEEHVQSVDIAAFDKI
T6 sequence (Q61425 13-314): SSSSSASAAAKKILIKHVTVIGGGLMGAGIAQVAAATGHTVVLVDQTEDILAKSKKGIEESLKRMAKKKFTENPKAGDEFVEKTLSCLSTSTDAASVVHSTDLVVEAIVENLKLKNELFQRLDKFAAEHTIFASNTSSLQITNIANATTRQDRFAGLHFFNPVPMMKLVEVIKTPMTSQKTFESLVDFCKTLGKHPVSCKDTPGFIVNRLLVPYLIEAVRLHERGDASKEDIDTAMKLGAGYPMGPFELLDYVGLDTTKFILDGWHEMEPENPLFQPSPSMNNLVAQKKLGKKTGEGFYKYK
T5 sequence (Q8BMG8 whole entry): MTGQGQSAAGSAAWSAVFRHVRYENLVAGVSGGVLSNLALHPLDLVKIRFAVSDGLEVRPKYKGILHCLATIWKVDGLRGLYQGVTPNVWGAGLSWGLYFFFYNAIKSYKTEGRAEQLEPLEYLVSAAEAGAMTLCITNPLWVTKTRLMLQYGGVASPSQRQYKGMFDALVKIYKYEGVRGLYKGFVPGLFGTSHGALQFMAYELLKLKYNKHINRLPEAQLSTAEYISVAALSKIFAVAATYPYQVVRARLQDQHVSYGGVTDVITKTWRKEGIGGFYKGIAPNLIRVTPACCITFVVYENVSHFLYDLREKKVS

As for `C#CCCCC1(CC/C=C\C/C=C\C/C=C\CCCC(=O)NCCO)N=N1` [AEA-DA, (5Z,8Z,11Z)-N-(2-hydroxyethyl)-14-(3-(pent-4-yn-1-yl)-3H-diazirin-3-yl)tetradeca-5,8,11-trienamide], the Times observed in test [1] was found to be 4; in test [2] it was 10; in [3], 2; in test [4], 7; in test [5], 6; in test [6], 10. The Times observed stood at 6 in [7]; 2 in [8]; 3 in test [9]; 3 in test [10]; 9 in test [11] (AEA-DA-modified peptide ARF4 P61750 39-60, SEQ ID NO 13); 2 in [11] (AEA-DA-modified peptide ARF4 P61750 110-128, SEQ ID NO 12). The Times observed in [12] is recorded as 4.

(Values after patent US10168342B2, “Lipid probes and uses thereof” (THE SCRIPPS RESEARCH INSTITUTE, priority 2015, dated 2019).)
